# In publication PMC9959130, “Effects of Side Chain and Peptide Bond Modifications on the Targeting Properties of Stabilized Minigastrin Analogs” (Pharmaceuticals, 2023):
# Read-outs that look alike come from different tables or passages of the source. Where a SMILES comes first, the peptide text is derived from it. [ ]: non-standard residue; d: D form. The star is where a group is joined. DOTA = O=C(O)CN1CCN(CC(=O)O)CCN(CC(=O)*)CCN(CC(=O)O)CC1; NMeNle = CCCC[C@H](NC)C(=O)O
# Assays:
# [1] = Metabolic studies in BALB/c mice (intact radiopeptide by radio-HPLC); type: in vivo; conditions: i.v., 2 nmol, 10 min p.i., two animals per peptide; for Intact radiopeptide in kidney: kidney homogenate; for Intact radiopeptide in liver: liver homogenate
# Experimental: All animal experiments were approved by the Austrian Ministry of Science (BMWF-66.011/0075- WF/V/3b/2016) and performed in accordance with the Austrian Animal Protection Act. Metabolic studies characterizing the stability of selected radioligands against enzymatic degradation were carried out in 7 to 8 week old female BALB/c mice (Charles River, Sulzfeld, Germany). The mice (two animals for each peptide) were intravenously injected into a lateral tail vein with 5–10 MBq of the ^111In-labeled peptide derivatives, corresponding to 2 nmol total peptide. At the time point of 10 min p.i. the animals were euthanatized by cervical dislocation. A sample of urine and blood was immediately collected. Liver and kidneys were dissected, mixed with 20 mM HEPES buffer pH 7.3 (1:1, w/v) and homogenized using an Ultra-Turrax T8 homogenizer (IKA-Werke, Staufen, Germany) for 1 min. All samples taken were analyzed by analytical HPLC using the low-sensitivity loop for urine and the high-sensitivity loop for blood, liver and kidney. Before injection into the HPLC system, all samples except urine were treated with ACN and diluted with water as described for stability studies in human serum. The percentage of intact radiopeptide in the analyzed samples was calculated by integration of the different peaks found in the radiochromatogram using Chromeleon Dionex Software (Version 7.2.9.11323).
# [2] = Binding to serum proteins (incubation in human serum, Sephadex G-50 size exclusion chromatography); type: in vitro ADME; conditions: 37 °C
# Experimental: Protein binding was determined by incubation of the radiolabeled peptides in human serum at 37 °C (500 pmol/mL, n = 2). For the time points of 1, 4, and 24 h after incubation, samples of 25 µL were subjected to Sephadex G-50 size exclusion chromatography (GE Healthcare Illustra, Little Chalfont, UK). The column and the eluate were measured using the γ-counter and the percentage of protein binding was calculated.
# [3] = Biodistribution in BALB/c nude mice bearing A431-CCK2R/A431-mock xenografts; type: in vivo; conditions: female, athymic BALB/c nude, mouse, iv, 20 pmol, total radioactivity, xenografted BALB/c nude mice, i.v., ~20 pmol, 4 h p.i. (indium-111 or lutetium-177), mean ± SD n = 4
# Experimental: The overall biodistribution and tumor targeting properties of selected radiolabeled peptides were evaluated in female athymic BALB/c nude mice (Charles River, Sulzfeld, Germany, age of 7 to 9 weeks). After tumor induction with 2 × 10^6 A431-CCK2R or A431-mock cells (subcutaneously injected in 200 μL DMEM into the right and left flank) and a waiting period of 10–14 days (sufficient to achieve tumors of ∼0.25 g), mice were randomly divided into groups of four and treated with a bolus injection of 150 µL of the injectable solution containing the radiolabeled peptide via a lateral tail vein to achieve an injected radioactivity of 150–200 kBq and a total injected peptide amount of ~20 pmol (n = 4 for each radiopeptide). For DOTA-[(N-Me)1Nal^8]MGS5, additional biodistribution studies were performed with gallium-68 (~0.5 MBq, 20 pmol) and lutetium-177 (~0.5 MBq, 20 pmol). The animals were euthanatized by cervical dislocation at 1 h (gallium-68) or 4 h p.i. (indium-111/ lutetium-177). The tumors and other tissues (blood, lung, heart, muscle, spleen, intestine, liver, kidney, stomach, and pancreas) were dissected, weighed, and the radioactivity measured in the γ-counter. The rest of the body and a standard of the solution injected was also measured together with the collected samples. The percentage of injected activity per gram of tissue (% IA/g) and the tumor-to-organ activity ratio of selected tissues were calculated for each mouse and time point studied. Origin software (Microcal Origin 6.1, Northampton, MA, USA) was used for statistical analysis (independent t-test for two populations; significance level p < 0.05).
SMILES,Intact radiopeptide in kidney [1],Intact radiopeptide in liver [1],Intact radiopeptide in blood [1],Intact radiopeptide in urine [1],"Binding to Serum Proteins (%) ([2]; radiolabeled peptide (111In where no radiometal named), 500 pmol/mL, 24 h after incubation, Sephadex G-50, γ-counter, n = 2)","tissue uptake at 4 h ([3]; A431-CCK2R xenograft, read-out: Uptake in A431-CCK2R xenograft)","tissue uptake at 4 h ([3]; stomach, read-out: Uptake in stomach)","fraction unbound at 4 h, 500 pmol/mL ([2]; human, radiolabeled peptide, 4 h after incubation, Sephadex G-50, n = 2)","fraction unbound at 24 h, 500 pmol/mL ([2]; radiolabeled peptide (111In where no radiometal named), 24 h after incubation, Sephadex G-50, γ-counter, n = 2)"
CCCC[C@@H](C(=O)N[C@@H](CC(=O)O)C(=O)N[C@@H](Cc1cccc2ccccc12)C(=O)NC)N(C)C(=O)[C@H](Cc1c[nH]c2ccccc12)NC(=O)CNC(=O)[C@H](Cc1ccc(O)cc1)NC(=O)[C@H](C)NC(=O)[C@@H](CCC(=O)O)NC(=O)CN1CCN(CC(=O)O)CCN(CC(=O)O)CCN(CC(=O)O)CC1 [[^111In]In-DOTA-MGS5[NHCH3]] [metal not drawn],7.4 ± 8.6%,78.1 ± 3.7%,71.7 ± 6.2%,1.3 ± 0.2%,–,–,–,–,–
CCCC[C@@H](C(=O)N[C@@H](CC(=O)O)C(=O)N[C@@H](Cc1ccc2ccccc2c1)C(N)=O)N(C)C(=O)[C@H](Cc1c[nH]c2ccccc12)NC(=O)CNC(=O)[C@H](Cc1ccc(O)cc1)NC(=O)[C@H](C)NC(=O)[C@@H](CCC(=O)O)NC(=O)CN1CCN(CC(=O)O)CCN(CC(=O)O)CCN(CC(=O)O)CC1 [[^111In]In-DOTA-[2Nal^8]MGS5] [metal not drawn],24.7 ± 0.3%,83.9 ± 0.1%,88.4 ± 0.4%,28.2 ± 1.0%,–,–,–,–,–
CCCC[C@@H](C(=O)N[C@@H](CC(=O)O)C(=O)N[C@@H](Cc1ccccc1)C(N)=O)N(C)C(=O)[C@H](Cc1c[nH]c2ccccc12)NC(=O)CNC(=O)[C@H](Cc1ccc(O)cc1)NC(=O)[C@H](C)NC(=O)[C@@H](CCC(=O)O)NC(=O)CN1CCN(CC(=O)O)CCN(CC(=O)O)CCN(CC(=O)O)CC1 [[^111In]In-DOTA-[Phe^8]MGS5] [metal not drawn] ({DOTA}-[dE]AYGW[NMeNle]DF-NH2),–,–,–,–,20%,–,–,–,–
"CCCC[C@@H](C(=O)N[C@@H](CC(=O)O)C(=O)N(C)[C@@H](Cc1cccc2ccccc12)C(N)=O)N(C)C(=O)[C@H](Cc1c[nH]c2ccccc12)NC(=O)CNC(=O)[C@H](Cc1ccc(O)cc1)NC(=O)[C@H](C)NC(=O)[C@@H](CCC(=O)O)NC(=O)CN1CCN(CC(=O)O)CCN(CC(=O)O)CCN(CC(=O)O)CC1 [[^177Lu]Lu-DOTA-[(N-Me)1Nal^8]MGS5, metal not drawn]",–,–,–,–,–,35.1 ± 6.32 %ID/g,2.37 ± 0.33 %ID/g,0.746,0.713
